From patent US20250345378A1 (priority 2022, published 2025)
Read-outs that look alike come from different tables or passages of the source.

How the values were obtained:
[1] = tested on: E. coli strain ATCC 700928; experiment: Mouse UTI model, CK570 IU or IV: bacterial burden in kidneys, bladder, urine; assay type: in vivo, C3H/OuJ mice; details: each tissue, all timepoints
Excerpt: The vehicle used in this study was 1×TBS. […] C3H/OuJ female mice, aged approximately 8 weeks and weighing 21 to 24 grams, were used in this study. Mice were housed with 1 to 5 animals per cage and were provided food (5P76 Prolab isopro irradiated lab diet) and water ad libitum. […] Each mouse was then placed on a board, ventral side up, with the nose inserted into a nose cone supplying isoflurane. The lower abdomen was gently massaged to expel any urine in the bladder. […] For IV administration, mice were manually restrained in a restrainer device, and study treatment was administered via the lateral tail vein. […] For IU administration, the same method was used as for the original administration of E. coli. A dose volume of 50 μL was used for IU administration. […] All CFU data were log-transformed.

[2] = tested on: 304 E. coli clinical isolates; assay type: cell-based, Escherichia coli; details: 304-isolate panel
Procedure: (§1) Phage cocktail CK618 was tested in combination with and alongside antibiotics against two isolate panels. The first assay used a panel of 88 contemporaneous urinary tract infection (UTI) isolates from North America, Europe, Latin America, and Asia. […] The second assay used a panel made up of a 300-strain clinical isolate panel (Table 14) with an additional 4 strains of interest. […] Four of the same SOC antibiotics tested against the 88-isolate panel were tested against this panel. The non-SOC antibiotics were not included due to their limited use in clinical settings, and nitrofurantoin was not included due to the low probability of resistance to this drug.
(§2) For both isolate panels, antibiotic concentrations tested were determined by using Clinical and Laboratory Standards Institute (CLSI) or European Committee on Antimicrobial Susceptibility Testing (EUCAST) breakpoints at concentrations that kill susceptible isolates but allow intermediate or resistant isolates to grow in the standard AST microdilution assay (Table 17).
(§3) The composition of the proposed Phase 2 CRISPR-enhanced bacteriophage (CRISPR-phage, hereafter termed ‘crPhage’) cocktail (CK618) has been updated from the CK570 to include six bacteriophages as compared to three bacteriophages in CK570. Bacteriophage cocktail CK618, was prepared such that all bacteriophages had equivalent titers in the final cocktail. The cocktail was then mixed with bacteria to obtain final titers of 1×10^6 plaque-forming unit (PFU)/mL/phage for the cocktail and 1×10^5 colony-forming unit (CFU)/mL for the bacteria, resulting in a multiplicity of infection (MOI) of 10 for each bacteriophage in a sample. Briefly, 5 μl of each sample (CK618 alone, CK618 and antibiotics, antibiotics alone, or medium alone) was added to 5 μl of optical density (OD)-normalized bacterial isolate and 40 μl LB medium. Reactions were incubated at 37° C. with shaking and OD measurements were taken each hour for 20 hours.
(§4) Host range percentage is the percent of isolates that responded to treatment of antibiotics or CK618. In the case of the 88-isolate panel, results were analyzed on the complete panel as well as the subset of classified as multidrug-resistant (MDR) (n=21) and beta-lactam-resistant (n=31).
(§5) The first assay used a panel of 88 contemporaneous isolates. Twenty-one of those strains are classified as MDR, with resistance to 3 or more antibiotic classes. […] The second assay used the panel made up of a 300-strain clinical isolate panel with an additional 4 strains of interest.
(§6) Antibiotic concentrations tested were determined by using CLSI or EUCAST breakpoints at concentrations that kill susceptible strains but allow intermediate or resistant strains to grow in the standard AST microdilution assay (Table 27). LBP-EC01 v.2 was combined with bacteria resulting in a MO of 10 for each bacteriophage in a sample. In the case of the 88-isolate panel, results were analyzed on the complete panel as well as the subset of isolates classified as multidrug-resistant (MDR) (n=21) and beta-lactam-resistant (n=31).

[3] = tested on: 88 urinary tract infection E. coli isolates; assay type: cell-based, Escherichia coli
Procedure: as §1, §2, §3, §4, §5, §6

E. coli (ATCC 700928) = experiment: Mouse UTI model, CK618 with TMP/SMX vs single agents and Phase 1b LBP-EC01 (Study 21-LOC-035); assay type: in vivo, C3H/OuJ mice; details: BID IV at 48, 54, 72, 78, 96 hours p.i.
Procedure: For the LBP-EC01 from the Phase 1b study treatment, animals received the Phase 1 Clinical Trial Material. Bactrim was formulated at a concentration of 6.3 mg/mL.

E. coli strain b3370 = experiment: Neutropenic thigh model, Colicin 10 and Colicin U (Study 23-END-056); assay type: in vivo, ICR mouse; details: 4 h and 7 h; 295 nM Colicin 10, 29.5 nM Colicin U
Procedure: Study 23-END-056 was performed to evaluate the statistical difference between Control and Colicin treatment and sustained reduction of bacteria burden to LOD with colicin treatment in an ICR mouse model (FIG. 51). Specifically, the efficacy of 29.5 nM Colicin U, and combination therapy of both of 295 nM Colicin 10 & 29.5 nM Colicin U were evaluated in an ICR mouse model compared with no treatment (Table 40 and FIG. 52). In these experiments, due to high endotoxin, Colicin U was diluted 1:10 more than Colicin 10. At the 4 h and 7 h time points, treatment with 295 nM Colicin 10 lowered CFU, whereas no change was seen after treatment with 29.5 Colicin U.

[4] = tested on: E. coli strains b3411 and b3370; experiment: In vitro CFU reduction by purified colicins; assay type: cell-based, Escherichia coli; details: ~30 min, then regrowth
Procedure: Colicins produced an immediate significant reduction of CFU/mL (˜30 min) after adding colicins before bacterial regrowth.

O=C(O)c1cn(C2CC2)c2cc(N3CCNCC3)c(F)cc2c1=O [Ciprofloxacin]
bacterial burden, positive control [1]: significantly reduced bacterial burden to the LOD in each tissue

Trimethoprim/Sulfamethoxazole [TMP/SXT]
Host range % on MDR subset (n = 93), Combination: Antibiotic + LBP-CK618 [2]: 75.3% | Host range % on MDR subset (n = 93), Single agent treatment [2]: 17.2% | Host range % on beta-lactam-resistant subset (n = 91), Combination: Antibiotic + LBP-CK618 [2]: 78.0% | Host range % on beta-lactam-resistant subset (n = 91), Single agent treatment [2]: 29.7% | Host Range % on MDR Subset (n = 93), Combination Antibiotic + LBP-EC01 v.2 ([2]; MDR subset, antibiotic combined with LBP-EC01 v.2): 75.3% | Host range % on MDR subset (n = 93), Single agent treatment ([2]; MDR subset, single agent): 17.2% | Host Range % on all Strains (n = 304), Combination: Antibiotic + LBP-EC01 v.2 ([2]; all strains, antibiotic combined with LBP-EC01 v.2): 81.9% | Host Range % on all Strains (n = 304), Single agent treatment ([2]; all strains, single agent): 46.4% | Host Range % on Beta-lactam-Resistant Subset (n = 91), Combination: Antibiotic + LBP-EC01 v.2 ([2]; beta-lactam-resistant subset, antibiotic combined with LBP-EC01 v.2): 78.0% | Host range % on beta-lactam-resistant subset (n = 91), Single agent treatment ([2]; beta-lactam-resistant subset, single agent): 29.7% | Host Range % on Beta-lactam-Resistant Subset (n = 31), Combination: Antibiotic + CK618 v.2 ([3]; 88-isolate panel): 83.9% | Host Range % on Beta-lactam-Resistant Subset (n = 31), Single agent treatment ([3]; 88-isolate panel): 25.8% | Host Range % on MDR Subset (n = 21), Combination: Antibiotic + CK618 v.2 ([3]; 88-isolate panel): 82.5% | Host Range % on MDR Subset (n = 21), Single agent treatment ([3]; 88-isolate panel): 19.0% | Host Range % on all Strains (n = 88), Single agent treatment ([3]; antibiotic at breakpoint concentration (Table 17), cocktail 1 × 10^6 PFU/ml per bacteriophage, MOI 10): 42.8% | Host Range % on all Strains (n = 88), Combination: Antibiotic + CK618 v.2 ([3]; antibiotic at breakpoint concentration plus cocktail 1 × 10^6 PFU/ml per bacteriophage): 85.6% | bacterial burden in bladder relative to vehicle and LBP-EC01 from the Phase 1b study, monotherapy (E. coli (ATCC 700928)): significant decrease in bacterial burden

B1: Colicin U (protein)
chain: MPGFNYGGHGDGTGWSSERGDGPAPGGGMQGNGGGHSGNNDSGSNSVSQQISAIQNDQKLKQKVVNMLIAARKMNPDAKMILGSIAPSGVMQVTIEGVTSTQARQLGLGGLVMGYNASGVIGAVGEIDTGHRLNASGASTPGSETSVDSFVNGQKPAEEWHAVAKDSWTGAGPVNTGLVNNAIKSVRIIKKGYVTGVLTPEEVMNKAEYKAMRQAFDSLPLAKQGEAVRQIVAAWSLAYQDFPVNLKKEMGRVTERIVDAINLALILNQTESRLSESQKNVDVANQIISDTVKAINDVNKKIAEKRNQQVSLTDLMNKKQKEVEDLKKIFKNHSYHRIRDAQREYDDARNKYALLASDINALQAQVSGLTARKQQAEQNKAAAEKAKADAAAKAAAEKAAAEAKAKAEAEKARKEAEEKANDEKAVLTKASEIIISVGDKAGEYLGDKYKVLSREIADNIKNFQGKTIRSYDEAMASVNKLMANPDLKINAADRDAIVNAWKAFDAEDMGNKFAALGKTFKAADYVMKANNVREKSIEGYQTGNWGPLMLEIESWVLSGIASAVALSFFSAIFGTFAMLGVFSTSLAGILAVILAGLVGALIDDNFVDKLNNEIIRPAY
modifications: Colicin U
CFU in mouse thigh compared with no treatment (E. coli strain b3370): no change | CFU reduction after adding colicins [4]: CFU reduction was observed

B2: Colicin 10 (protein)
chain: MDKVTDNSPDVESTESTEGSFPTVGVDTGDTITATLATGTENVGGGGGAFGGASESSAAIHATAKWSTAQLKKHQAEQAARAAAAEAALAKAKSQRDALTQRLKDIVNDALRANAARSPSVTDLAHANNMAMQAEAERLRLAKAEQKAREEAEAAEKALREAERQRDEIARQQAETAHLLAMAEAAEAEKNRQDSLDEEHRAVEVAEKKLAEAKAELAKAESDVQSKQAIVSRVAGELENAQKSVDVKVTGFPGWRDVQKKLERQLQDKKNEYSSVTNALNSAVSIRDAKKTEVQNAEIKLKEAKDALEKSQVKDSVDTMVGFYQYITEQYGEKYSRIAQDLAEKAKGSKFNSVDEALAAFEKYKNVLDKKFSKVDRDDIFNALESITYDEWAKHLEKISRALKVTGYLSFGYDVWDGTLKGLKTGDWKPLFVTLEKSAVDFGVAKIVALMFSFIVGAPLGFWGIAIITGIVSSYIGDDELNKLNELLGI
modifications: Colicin 10
CFU in mouse thigh compared with no treatment (E. coli strain b3370): lowered CFU | CFU reduction after adding colicins [4]: CFU reduction was observed
